Test results from PubChem BioAssay (NCI).
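Assay format: 96-well plates, 48-hour exposure. Definition used: TGI = concentration required for complete inhibition of growth.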

Tests used:
Test in all cases: inhibition of tumour cell growth, NCI panel, 48 h
HOP-18 NSCLC = system: HOP-18 NSCLC
SNB-75 CNS = system: SNB-75 CNS
UO-31 renal = system: UO-31 renal
HT29 colon = system: HT29 colon
CCRF-CEM leukemia = system: CCRF-CEM leukemia
EKVX NSCLC = system: EKVX NSCLC
M19-MEL melanoma = system: M19-MEL melanoma
SF-268 CNS = system: SF-268 CNS
M14 melanoma = system: M14 melanoma
RPMI-8226 leukemia = system: RPMI-8226 leukemia
SF-539 CNS = system: SF-539 CNS
LOX IMVI melanoma = system: LOX IMVI melanoma
786-0 renal = system: 786-0 renal
SK-MEL-2 melanoma = system: SK-MEL-2 melanoma
ACHN renal = system: ACHN renal
MALME-3M melanoma = system: MALME-3M melanoma
HL-60(TB) leukemia = system: HL-60(TB) leukemia
UACC-62 melanoma = system: UACC-62 melanoma
IGROV1 ovarian = system: IGROV1 ovarian
NCI-H23 lung = system: NCI-H23 lung
SN12C renal = system: SN12C renal
HOP-92 NSCLC = system: HOP-92 NSCLC
DMS 114 small cell lung = system: DMS 114 small cell lung
DLD-1 colon = system: DLD-1 colon
LXFL 529 NSCLC = system: LXFL 529 NSCLC
SW-620 colon = system: SW-620 colon
KM20L2 colon = system: KM20L2 colon
DMS 273 small cell lung = system: DMS 273 small cell lung
SNB-78 CNS = system: SNB-78 CNS
KM12 colon = system: KM12 colon
OVCAR-8 ovarian = system: OVCAR-8 ovarian
HCT-116 colon = system: HCT-116 colon
OVCAR-4 ovarian = system: OVCAR-4 ovarian
OVCAR-5 ovarian = system: OVCAR-5 ovarian
XF 498 CNS = system: XF 498 CNS
HOP-62 NSCLC = system: HOP-62 NSCLC
SR leukemia = system: SR leukemia
COLO 205 colon = system: COLO 205 colon
U251 CNS = system: U251 CNS
UACC-257 melanoma = system: UACC-257 melanoma
HCT-15 colon = system: HCT-15 colon
A549 NSCLC = system: A549 NSCLC
NCI-H522 lung = system: NCI-H522 lung
RXF 393 renal = system: RXF 393 renal
TK-10 renal = system: TK-10 renal
MOLT-4 leukemia = system: MOLT-4 leukemia
OVCAR-3 ovarian = system: OVCAR-3 ovarian
CAKI-1 renal = system: CAKI-1 renal
SF-295 CNS = system: SF-295 CNS
NCI-H460 lung = system: NCI-H460 lung
SNB-19 CNS = system: SNB-19 CNS
SK-MEL-5 melanoma = system: SK-MEL-5 melanoma
SK-MEL-28 melanoma = system: SK-MEL-28 melanoma
HCC-2998 colon = system: HCC-2998 colon
K-562 leukemia = system: K-562 leukemia
A498 renal = system: A498 renal
NCI-H226 lung = system: NCI-H226 lung
SK-OV-3 ovarian = system: SK-OV-3 ovarian

Measured: TGI

CCCCCCCCCCCCCCCCCCCCCC(=O)Nc1ccn(C2OC(CO)C(O)C2O)c(=O)n1 (stereo not drawn)
> 82.6 µM: ACHN renal
> 40.7 µM: CCRF-CEM leukemia
> 43.2 µM: DMS 114 small cell lung
32.6 µM: M14 melanoma
26.8 µM: SR leukemia
> 57.6 µM: HOP-62 NSCLC
> 37.1 µM: MOLT-4 leukemia
> 100 µM: all other assays above
